Columns and labels:
[1] = test system: NCI-H358 human non-small cell lung cancer; experiment: NCI-H358 CCK-8 proliferation assay; format: cell-based; conditions: NCI-H358 cells, 72 hr
Method in brief: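 KRAS(G12C) lines were used: MIA PaCa-2 with 2 copies, and NCI-H358 and NCI-H23 with 1 copy each. Cells were treated with 3-fold compound dilutions from 20 μM to 1.02 nM, and proliferation was read by CCK-8 absorbance. % inhibition was calculated against DMSO-treated cells after subtracting the cell-free medium blank.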

HSP90a protein = biological target: T1, HSP90a protein (Homo sapiens, UniProt P07900); experiment: HSP90α-binding fluorescent polarization (FP) assay, BODIPY-labeled RNK04010 probe; conditions: FP competition with RNK04010 (BODIPY-labeled), 5 nM, 300 min at 25° C.
T1 construct: purchased BPS Bioscience 50298
Method in brief: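 Displacement of a 5 nM fluorescent HSP90 ligand from the N-terminal HSP90a domain by FP. Incubation ran at 25° C: 120 min for the FITC-geldanamycin tracer, 300 min for the BODIPY-conjugated triazolone RNK04010.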

[2] = test system: NCI-H23 human non-small cell lung cancer; experiment: NCI-H23 CCK-8 proliferation assay; format: cell-based; conditions: NCI-H23 cells, 72 hr
Protocol: The following cancer cell lines were employed: BT-474 human breast carcinoma (ATCC, #HTB-20); MIA PaCa-2 human pancreatic carcinoma [2 copies KRAS(G12C)](ATCC, #CRL-1420); NCI-H23 human non-small cell lung cancer [1 copy KRAS(G12C)](ATCC, #CRL-5800); NCI-H358 human non-small cell lung cancer [1 copy KRAS(G12C)](ATCC, #CRL-5807); LU65A human lung carcinoma (Pharmaron, Beijing, China). Cell lines were cultured essentially according to ATCC and Pharmaron recommendations.
Cancer Cell Line Proliferation (CCK-8) Assays
3-fold serial dilutions of each test compound were prepared ranging from 20 μM to 1.02 nM.
% Inhibition=100−(D−B)/(S−B)*100%. • S: Absorbance of cells treated with DMSO • D: Absorbance of compound-treated cells • B: Absorbance of medium with DMSO without cells

SMILES | EC50 [1] | IC50 (HSP90a protein) | EC50 [2]
C=CC(=O)N1CCN(c2nc(NCCC(=O)N3CCC(CN4CCN(Cc5ccc(-n6c(O)nnc6-c6cc(C(C)C)c(O)cc6O)cc5)CC4)CC3)nc3c2CCN(c2cccc4cccc(Cl)c24)C3)C[C@H]1CC#N [Compound 87, (R)-2-(1-acryloyl-4-(7-(8-chloronaphthalen-1-yl)-2-((3-(4-((4-(4-(3-(2,4-dihydroxy-5-isopropylphenyl)-5-hydroxy-4H-1,2,4-triazol-4-yl)benzyl)piperazin-1-yl)methyl)piperidin-1-yl)-3-oxopropyl)amino)-5,6,7,8-tetrahydropyrido[3,4-d]pyrimidin-4-yl)piperazin-2-yl)acetonitrile, trifluoroacetic acid] | 0.1 to 1 µM | 0.1 to 1 µM | 0.1 to 1 µM
C=CC(=O)N1CCN(c2nc(NCCC(=O)N[C@H](C)c3ccc(CN4CCC(Cc5ccc(-n6c(O)nnc6-c6cc(C(C)C)c(O)cc6O)cc5)CC4)cc3)nc3c2CCN(c2cc(O)cc4ccccc24)C3)CC1 [Compound 18, (R)-3-((4-(4-acryloylpiperazin-1-yl)-7-(3-hydroxynaphthalen-1-yl)-5,6,7,8-tetrahydropyrido[3,4-d]pyrimidin-2-yl)amino)-N-(1-(4-((4-(4-(3-(2,4-dihydroxy-5-isopropylphenyl)-5-hydroxy-4H-1,2,4-triazol-4-yl)benzyl)piperidin-1-yl)methyl)phenyl)ethyl)propanamide, trifluoroacetic acid] | 0.1 to 1 µM | 0.1 to 1 µM | 0.1 to 1 µM
C=CC(=O)N1CCN(c2nc(NCCC(=O)N3CCC(Cc4ccc(-n5c(C(=O)NCC(F)(F)F)nnc5-c5cc(C(C)C)c(O)cc5O)cc4)CC3)nc3c2CCN(c2cc(O)cc4ccccc24)C3)CC1 [Compound 11, 4-(4-((1-(3-((4-(4-acryloylpiperazin-1-yl)-7-(3-hydroxynaphthalen-1-yl)-5,6,7,8-tetrahydropyrido[3,4-d]pyrimidin-2-yl)amino)propanoyl)piperidin-4-yl)methyl)phenyl)-5-(2,4-dihydroxy-5-isopropylphenyl)-N-(2,2,2-trifluoroethyl)-4H-1,2,4-triazole-3-carboxamide, trifluoroacetic acid] | 0.1 to 1 µM | > 1 µM | > 1 µM
C=CC(=O)N1CCN(c2nc(NCCC(=O)N3CCC(CN4CCN(Cc5ccc(-n6c(C(N)=O)nnc6-c6cc(CC)c(O)cc6O)cc5)CC4)CC3)nc3c2CCN(c2cc(O)cc4ccccc24)C3)CC1 [Compound 71, 4-(4-((4-((1-(3-((4-(4-acryloylpiperazin-1-yl)-7-(3-hydroxynaphthalen-1-yl)-5,6,7,8-tetrahydropyrido[3,4-d]pyrimidin-2-yl)amino)propanoyl)piperidin-4-yl)methyl)piperazin-1-yl)methyl)phenyl)-5-(5-ethyl-2,4-dihydroxyphenyl)-4H-1,2,4-triazole-3-carboxamide] | 0.1 to 1 µM | < 0.1 µM | > 1 µM
C=CC(=O)N1CCN(c2nc(OCCC(=O)N3CCC(CN4CCN(Cc5ccc(-n6c(O)nnc6-c6cc(C(C)C)c(O)cc6O)cc5)CC4)CC3)nc3c2CCN(c2cc(O)cc4ccccc24)C3)CC1 [Compound 15, 1-(4-(2-(3-(4-((4-(4-(3-(2,4-dihydroxy-5-isopropylphenyl)-5-hydroxy-4H-1,2,4-triazol-4-yl)benzyl)piperazin-1-yl)methyl)piperidin-1-yl)-3-oxopropoxy)-7-(3-hydroxynaphthalen-1-yl)-5,6,7,8-tetrahydropyrido[3,4-d]pyrimidin-4-yl)piperazin-1-yl)prop-2-en-1-one, trifluoroacetic acid] | 0.1 to 1 µM | < 0.1 µM | 0.1 to 1 µM
CCc1cc(-c2nnc(C(N)=O)n2-c2ccc(CN3CCN(CC4CCN(C(=O)CCNc5nc6c(c(N7CCN(C(C)=O)CC7)n5)CCN(c5cc(O)cc7ccccc57)C6)CC4)CC3)cc2)c(O)cc1O [Compound 69, 4-(4-((4-((1-(3-((4-(4-acetylpiperazin-1-yl)-7-(3-hydroxynaphthalen-1-yl)-5,6,7,8-tetrahydropyrido[3,4-d]pyrimidin-2-yl)amino)propanoyl)piperidin-4-yl)methyl)piperazin-1-yl)methyl)phenyl)-5-(5-ethyl-2,4-dihydroxyphenyl)-4H-1,2,4-triazole-3-carboxamide, trifluoroacetic acid] | 0.1 to 1 µM | < 0.1 µM | > 1 µM
C=CC(=O)N1CCN(c2nc(NCCC(=O)N3CCC(CN4CCN(Cc5ccc(-n6c(O)nnc6-c6cc(C(C)C)c(O)cc6O)cc5)CC4)CC3)nc3c2CCN(c2cccc4ccccc24)C3)C[C@H]1CC#N [Compound 78, (R)-2-(1-acryloyl-4-(2-((3-(4-((4-(4-(3-(2,4-dihydroxy-5-isopropylphenyl)-5-hydroxy-4H-1,2,4-triazol-4-yl)benzyl)piperazin-1-yl)methyl)piperidin-1-yl)-3-oxopropyl)amino)-7-(naphthalen-1-yl)-5,6,7,8-tetrahydropyrido[3,4-d]pyrimidin-4-yl)piperazin-2-yl)acetonitrile] | 0.1 to 1 µM | < 0.1 µM | 0.1 to 1 µM
CCC(=O)N1CCN(c2nc(NCCC(=O)N[C@H](C)c3ccc(CN4CCC(Cc5ccc(-n6c(O)nnc6-c6cc(C(C)C)c(O)cc6O)cc5)CC4)cc3)nc3c2CCN(c2cc(O)cc4ccccc24)C3)CC1 [Compound 61] | 0.1 to 1 µM | < 0.1 µM | > 1 µM
C=CC(=O)N1CCN(c2nc(NCCC(=O)N3CCC(CN4CCN(Cc5ccc(-n6c(C(N)=O)nnc6-c6cc(CC)c(O)cc6O)cc5)CC4)CC3)nc3c2CCN(c2cccc4cccc(Cl)c24)C3)C[C@H]1CC#N [Compound 99, (R)-4-(4-((4-((1-(3-((4-(4-acryloyl-3-(cyanomethyl)piperazin-1-yl)-7-(8-chloronaphthalen-1-yl)-5,6,7,8-tetrahydropyrido[3,4-d]pyrimidin-2-yl)amino)propanoyl)piperidin-4-yl)methyl)piperazin-1-yl)methyl)phenyl)-5-(5-ethyl-2,4-dihydroxyphenyl)-4H-1,2,4-triazole-3-carboxamide, trifluoroacetic acid] | 0.1 to 1 µM | 0.1 to 1 µM | 0.1 to 1 µM
CCCc1cc(-c2nnc(O)n2-c2ccc(CN3CCN(CC4CCN(C(=O)CCNc5nc6c(c(N7CCN(C(C)=O)CC7)n5)CCN(c5cc(O)cc7ccccc57)C6)CC4)CC3)cc2)c(O)cc1O [Compound 59, 3-((4-(4-acetylpiperazin-1-yl)-7-(3-hydroxynaphthalen-1-yl)-5,6,7,8-tetrahydropyrido[3,4-d]pyrimidin-2-yl)amino)-1-(4-((4-(4-(3-(2,4-dihydroxy-5-propylphenyl)-5-hydroxy-4H-1,2,4-triazol-4-yl)benzyl)piperazin-1-yl)methyl)piperidin-1-yl)propan-1-one, trifluoroacetic acid] | 0.1 to 1 µM | 0.1 to 1 µM | > 1 µM
C=CC(=O)N1CCN(c2nc(NCCC(=O)NCCc3ccc(CN4CCC(Cc5ccc(-n6c(C(=O)NCC(F)(F)F)nnc6-c6cc(C(C)C)c(O)cc6O)cc5)CC4)cc3)nc3c2CCN(c2cccc4ccccc24)C3)C[C@H]1CC#N [Compound 108, (R)-4-(4-((1-(4-(2-(3-((4-(4-acryloyl-3-(cyanomethyl)piperazin-1-yl)-7-(naphthalen-1-yl)-5,6,7,8-tetrahydropyrido[3,4-d]pyrimidin-2-yl)amino)propanamido)ethyl)benzyl)piperidin-4-yl)methyl)phenyl)-5-(2,4-dihydroxy-5-isopropylphenyl)-N-(2,2,2-trifluoroethyl)-4H-1,2,4-triazole-3-carboxamide, trifluoroacetic acid, trifluoroacetic acid, trifluoroacetic acid, trifluoroacetic …] | 0.1 to 1 µM | 0.1 to 1 µM | 0.1 to 1 µM
CCc1cc(-c2nnc(C(=O)NCC(F)(F)F)n2-c2ccc(CN(C)Cc3ccc(CC4CCN(C(=O)CCNc5nc6c(c(N7CCN(C(C)=O)[C@H](CC#N)C7)n5)CCN(c5cccc7ccccc57)C6)CC4)cc3)cc2)c(O)cc1O [Compound 118, (R)-4-(4-(((4-((1-(3-((4-(4-acetyl-3-(cyanomethyl)piperazin-1-yl)-7-(naphthalen-1-yl)-5,6,7,8-tetrahydropyrido[3,4-d]pyrimidin-2-yl)amino)propanoyl)piperidin-4-yl)methyl)benzyl)(methyl)amino)methyl)phenyl)-5-(5-ethyl-2,4-dihydroxyphenyl)-N-(2,2,2-trifluoroethyl)-4H-1,2,4-triazole-3-carboxamide, trifluoroacetic acid] | 0.1 to 1 µM | > 1 µM | 0.1 to 1 µM

Reference: US20230391772A1, “METHODS AND COMPOSITIONS FOR TARGETED PROTEIN DEGRADATION” (Ranok Therapeutics (Hangzhou) Co. Ltd., priority 2020, published 2023)
